This is an account of results in patent US20170000749A1, “Methods for Treating Cognitive Disorders Using Inhibitors of Histone Deacetylase” (Forum Pharmaceuticals, Inc., priority 2008, published 2017).

Molecules are shown by their SMILES. Where two headings read alike, the source gives them in different places.

Experiment [1] deals with one or more of HDAC-1, HDAC-2, HDAC-3, HDAC-4, HDAC-5, HDAC-6, HDAC-7, HDAC-8, HDAC-9, HDAC-10 and HDAC-11. In words: Inhibition of Histone Deacetylase Enzymatic Activity (Boc-Lys(Ac)-AMC substrate, Fluor-de-Lys developer). In kind it is biochemical. Conditions: read-out: HDAC Inhibition (IC50 μM) HDAC Enzyme. As for the experimental part:
The following protocol is used to assay the compounds of the disclosure.
The mixture is pre-incubated for 5 minutes at room temperature. The reaction is started by bringing the temperature to 37° C. and adding 16 μl substrate. Total reaction volume is 50 μl.
In the Tables 8, 9 and 10, A≦0.05 μM; 0.05 μM<B≦0.1 μM; 0.1 μM<C≦1 μM; and 1 μM<D≦10 μM.

Experiment [2] relates to HDAC activity in primary mouse cortical cultures. The experiment is described as follows: Whole-Cell Histone Deacetylase (HDAC) Inhibition Assay in Primary Mouse Cortical Cultures. In kind it is cell-based. Conditions: whole-cell (WC), mouse cortical neurons, read-out: HDAC Inhibition (IC50 μM) WC mouse cortical neurons. The procedure, abridged:
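Primary neocortical neurons from E17 Balb/C mouse embryos were plated at 50000 cells/well and treated at DIV9 with ten-point DMSO dilutions for 16-18 h at 37° C, in triplicate. BOC-Lys(Ac)-AMC substrate was then added for 1 h. Fluor de Lys developer containing 1 uM TSA produced a fluorophore, which was read.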

In the case of `O=C(NO)c1ccc(C2=Nc3ccccc3Nc3ccccc32)cc1` [(Z)-4-(5H-dibenzo[b,e][1,4]diazepin-11-yl)-N-hydroxybenzamide], the IC50 in experiment [1] (Table 8) is 0.1 to 1 µM; in experiment [2] (Table 8) it was 1 to 5 µM.
Take `O=C(NO)c1cnc(N2C[C@@H]3C[C@H]2CN3c2ccc3nsnc3c2)nc1` [2-((1S,4S)-5-(benzo[c][1,2,5]thiadiazol-5-yl)-2,5-diazabicyclo[2.2.1]heptan-2-yl)-N-hydroxypyrimidine-5-carboxamide]: the IC50 in experiment [1] (Table 9) is below 0.05 µM; in experiment [2] (Table 9), below 1 µM.
For the compound `Cc1ccccc1N1C[C@@H]2C[C@H]1CN2c1ncc(C(=O)NO)cn1` [N-hydroxy-2-((1S,4S)-5-o-tolyl-2,5-diazabicyclo[2.2.1]heptan-2-yl)pyrimidine-5-carboxamide], the IC50 in experiment [1] (Table 9) was in the range of 0.05 to 0.1 µM; in experiment [2] (Table 9) it was 1 to 5 µM.
Regarding `O=C(NO)c1ccc(C2=Nc3cccnc3Oc3ccccc32)cc1` [(Z)-4-(benzo[f]pyrido[2,3-b][1,4]oxazepin-6-yl)-N-hydroxybenzamide], the IC50 in experiment [1] (Table 8) is below 0.05 µM; in experiment [2] (Table 8), 1 to 5 µM.
With `O=C(NO)c1cnc(N2C[C@@H]3C[C@H]2CN3c2cccc(C(F)(F)F)c2)nc1` [N-hydroxy-2-((1S,4S)-5-(3-(trifluoromethyl)phenyl)-2,5-diazabicyclo[2.2.1]heptan-2-yl)pyrimidine-5-carboxamide], the half-inhibitory concentration (IC50) is below 0.05 µM in experiment [1] (Table 9) and below 1 µM in experiment [2] (Table 9).
On to `O=C(CCCCCON=c1c2ccccc2ccc2ccccc12)NO`, for which the figures for the IC50 in experiment [1] (Table 10) and in experiment [2] (Table 10) were 0.1 to 1 µM and 5 to 15 µM, respectively.
Consider `O=C(NO)c1cnc(N2C[C@@H]3C[C@H]2CN3C(=O)OCc2cccnc2)nc1` [(1S,4S)-pyridin-3-ylmethyl 5-(5-(hydroxycarbamoyl)pyrimidin-2-yl)-2,5-diazabicyclo[2.2.1]heptane-2-carboxylate], for which the IC50 was below 0.05 µM in experiment [1] (Table 9) and below 1 µM in experiment [2] (Table 9).
For `O=C(CCCCCCOc1nc2ccccc2c2ccccc12)NO` [N-hydroxy-7-(phenanthridin-6-yloxy)heptanamide], the half-inhibitory concentration (IC50) was below 0.05 µM in experiment [1] (Table 10) and 5 to 15 µM in experiment [2] (Table 10).
In the same order, the values of `O=C(NO)c1ccc(CN2C(=O)c3cccnc3N(C3CC3)c3ccccc32)cc1` [4-((11-cyclopropyl-5-oxo-5H-benzo[b]pyrido[2,3-e][1,4]diazepin-6(11H)-yl)methyl)-N-hydroxybenzamide] are 0.1 to 1 µM and 5 to 15 µM.
As for `Cc1ccc(N2CC3CC2CN3c2ccc(C(=O)NO)cn2)cc1` (centres unmarked) [N-hydroxy-6-(5-p-tolyl-2,5-diazabicyclo[2.2.1]heptan-2-yl)nicotinamide], the values for the IC50 in experiment [1] (Table 9) and in experiment [2] (Table 9) were below 0.05 µM and below 1 µM, respectively.
For `O=C(CCCCCN1C(=O)c2cccnc2N(C2CC2)c2ccccc21)NO` [6-(11-cyclopropyl-5-oxo-5H-benzo[b]pyrido[2,3-e][1,4]diazepin-6(11H)-yl)-N-hydroxyhexanamide], the values for the IC50 in experiment [1] (Table 10) and in experiment [2] (Table 10) were 0.1 to 1 µM and 1 to 5 µM, respectively.
Regarding `O=C(NO)c1cnc(N2CC3CC2CO3)nc1` (centres unmarked) [2-(2-oxa-5-azabicyclo[2.2.1]heptan-5-yl)-N-hydroxypyrimidine-5-carboxamide], the values for the IC50 in experiment [1] (Table 9) and in experiment [2] (Table 9) were 0.1 to 1 µM and 1 to 5 µM, respectively.
In the case of `Cc1cccc(N2C[C@H]3C[C@@H]2CN3c2ccc(C(=O)NO)cc2)c1` [N-hydroxy-4-((1R,4R)-5-m-tolyl-2,5-diazabicyclo[2.2.1]heptan-2-yl)benzamide], the IC50 in experiment [1] (Table 9) fell in the range of 0.1 to 1 µM; in experiment [2] (Table 9) it was 1 to 5 µM.
For the compound `O=C(NO)c1ccc(C2=Nc3ccc(C(F)(F)F)nc3Oc3ccccc32)cc1` [(Z)-N-hydroxy-4-(2-(trifluoromethyl)benzo[f]pyrido[2,3-b][1,4]oxazepin-6-yl)benzamide], the concentration for half-maximal inhibition (IC50) in experiment [1] (Table 8) fell in the range of 0.05 to 0.1 µM; in experiment [2] (Table 8), 5 to 15 µM.
As to `O=C(NO)c1cnc(NC2c3ccccc3C=Cc3ccccc32)nc1`, the IC50 in experiment [1] (Table 10) was below 0.05 µM; in experiment [2] (Table 10), below 1 µM.
As for `O=C(NO)c1ccc(C2=Nc3cncnc3N3CCc4cccc2c43)cc1`, the IC50 fell in the range of 0.1 to 1 µM in experiment [1] (Table 8) and 5 to 15 µM in experiment [2] (Table 8).
